According to patent US20080261994A1, “CYCLOPROPANE COMPOUNDS AND PHARMACEUTICAL USE THEREOF” (Japan Tobacco Inc., priority 2003, published 2008):
Structures can show the parent of a compound that is named as a salt. Where two headings read alike, the source gives them in different places.

What was measured:
Format in all cases: biochemical
[1] = target: T1, Recombinant Human MMP-13 (Homo sapiens, UniProt P45452); test: MMP-13 inhibitory activity (MMP-13 specific fluorescent substrate with quencher)
T1 construct: purchased R&D systems 511-MM
How it was run: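 Recombinant human MMP-13 with test compound, reaction started with quenched fluorogenic peptide 7-MCA-Pro-CHA-Gly-NVal-His-Ala-DPA in Tris-HCl buffer, 1 h at 25 °C, stopped with acetic acid. Fluorescence at Ex 325/Em 405 nm; % inhibition versus enzyme-free and inhibitor-free wells, reported as IC50 (μM).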

[2] = target: T2, aggrecanase-1 (Homo sapiens, UniProt O75173); test: Aggrecanase-1 inhibitory action (Particle Assay, GAG release from aggrecan-containing polyacrylamide particles)
T2 sequence (O75173 213-837): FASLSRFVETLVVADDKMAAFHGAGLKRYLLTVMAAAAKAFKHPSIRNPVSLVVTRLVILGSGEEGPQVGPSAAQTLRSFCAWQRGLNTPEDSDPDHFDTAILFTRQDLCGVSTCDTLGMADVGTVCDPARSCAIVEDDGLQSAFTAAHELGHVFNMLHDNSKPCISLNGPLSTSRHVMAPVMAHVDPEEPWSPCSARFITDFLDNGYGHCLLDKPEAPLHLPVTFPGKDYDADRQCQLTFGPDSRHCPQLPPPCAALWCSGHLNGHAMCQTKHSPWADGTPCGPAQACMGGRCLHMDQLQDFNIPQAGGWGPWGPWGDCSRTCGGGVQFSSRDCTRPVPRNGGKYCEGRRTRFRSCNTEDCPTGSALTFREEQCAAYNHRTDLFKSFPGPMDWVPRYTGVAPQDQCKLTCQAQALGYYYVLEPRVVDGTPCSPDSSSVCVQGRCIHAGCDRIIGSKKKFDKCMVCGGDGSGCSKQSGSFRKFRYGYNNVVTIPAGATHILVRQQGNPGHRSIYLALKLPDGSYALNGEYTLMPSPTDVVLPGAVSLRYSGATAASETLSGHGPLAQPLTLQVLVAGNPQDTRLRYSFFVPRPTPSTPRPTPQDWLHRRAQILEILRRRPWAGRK
How it was run: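 Enzyme and compound incubated with aggrecan-containing polyacrylamide particles in Tris-HCl buffer at 37° C for 15 h. Released GAG in supernatant measured with 1,9-dimethylmethylene blue at 595 nm against chondroitin sulfate standard; % inhibition from enzyme-free and inhibitor-free wells, reported as TC50 (μM).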

[3] = target: T3, MMP-1 (Homo sapiens, UniProt P03956); test: MMP-1 inhibitory action (Type I collagen Activity Measurement kit, FITC-labeled collagen type I)
T3 sequence (P03956 100-469): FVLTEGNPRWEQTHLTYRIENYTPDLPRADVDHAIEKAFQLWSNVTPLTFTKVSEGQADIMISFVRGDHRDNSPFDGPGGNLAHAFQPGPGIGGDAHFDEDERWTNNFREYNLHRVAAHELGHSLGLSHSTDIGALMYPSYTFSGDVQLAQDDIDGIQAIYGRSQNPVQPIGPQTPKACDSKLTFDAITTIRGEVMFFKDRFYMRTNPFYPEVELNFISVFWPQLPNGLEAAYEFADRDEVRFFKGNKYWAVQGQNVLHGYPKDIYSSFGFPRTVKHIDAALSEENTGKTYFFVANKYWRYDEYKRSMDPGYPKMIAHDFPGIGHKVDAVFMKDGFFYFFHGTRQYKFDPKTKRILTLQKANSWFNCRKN

[4] = Experimental Example 3, read-out: IC50 MMP13
[5] = Experimental Example 1, read-out: IC50 AG1
[6] = Experimental Example 2, read-out: IC50 MMP1
[7] = Recombinant Human MMP-13, fluorescent substrate, 25° C. for 1 h, read-out: IC50 MMP13 (Experimental Example 3)
[8] = aggrecanase-1 inhibitory action, read-out: IC50 AG1 (Experimental Example 1)
[9] = MMP-1 inhibitory action, FITC-labeled collagen type I, 37° C. for 3 hr, read-out: IC50 MMP1 (Experimental Example 2)

SMILES | IC50 [1, 4] [nM] | IC50 [2, 5] [nM] | IC50 [3, 6] [nM] | IC50 [1, 7] [nM] | IC50 [2, 8] [nM] | IC50 [3, 9] [nM]
CC1[C@H](c2ccccc2)[C@]1(NS(=O)(=O)c1ccc(-c2cc(C(F)F)on2)s1)C(=O)O (stereo partly drawn) [Example 2-353] | < 100 | < 100 | < 1000 |  |  | 
COCCN(C)Cc1ccccc1C1CC1(NS(=O)(=O)c1ccc(-c2ccc(Cl)cc2)s1)C(=O)O (stereo not drawn) [Example 2-89] |  |  |  | ≥ 1000 | ≥ 1000 | ≥ 10000
CC1[C@H](c2ccccc2)[C@]1(NS(=O)(=O)c1ccc(-c2cc(C(F)(F)F)on2)s1)C(N)=O (stereo partly drawn) [Example 2-296] | ≥ 1000 | ≥ 1000 | ≥ 10000 |  |  | 
O=C(O)C1(NS(=O)(=O)c2ccc(-c3ccc(Cl)cc3)s2)CC1(CN1CCOCC1)c1ccccc1 (stereo not drawn) [Example 2-341] | ≥ 1000 | < 100 | ≥ 10000 |  |  | 
O=C(O)[C@]1(NS(=O)(=O)c2ccc(C3=CCNCC3)s2)C[C@@H]1c1ccccc1 [Example 2-2, (1S,2R)-2-phenyl-1-[5-(1,2,3,6-tetrahydro-pyridin-4-yl)-thiophene-2-sulfonylamino]-cyclopropanecarboxylic acid hydrochloride] |  |  |  | ≥ 10000 | ≥ 10000 | ≥ 10000
CN1CCN(C(=O)CCc2cccc(C3CC3(NS(=O)(=O)c3ccc(-c4ccc(Cl)cc4)s3)C(=O)O)c2)CC1 (stereo not drawn) [Example 2-210] |  |  |  | < 100 | < 1000 | ≥ 10000
O=C(O)[C@@]1(NS(=O)(=O)c2ccc(-c3ccc(Cl)cc3)s2)C[C@H]1c1cccc(Br)c1 [Example 2-150] |  |  |  | < 1000 | < 1000 | ≥ 1000
O=C(O)[C@]1(NS(=O)(=O)c2ccc(-c3ccc(Cl)cc3)s2)C[C@@H]1c1ccccc1Br [Example 2-178] |  |  |  | < 1000 | < 100 | ≥ 10000
CC(=O)OCCCC1(c2ccccc2)CC1(NS(=O)(=O)c1ccc(-c2cc(C(F)(F)F)on2)s1)C(=O)O (stereo not drawn) [Example 2-264] |  |  |  | < 100 | < 100 | ≥ 1000

Results, then the molecule that gave them:

IC50 [1, 4] [nM] | IC50 [2, 5] [nM] | IC50 [3, 6] [nM] | IC50 [1, 7] [nM] | IC50 [2, 8] [nM] | IC50 [3, 9] [nM] | SMILES
< 1000 | < 1000 | < 1000 |  |  |  | O=C(O)C1(NS(=O)(=O)c2ccc(-c3ccc(Cl)cc3)s2)CC1(COCc1ccccc1)c1ccccc1 (stereo not drawn) [Example 2-356]
< 100 | < 100 | ≥ 1000 |  |  |  | C[C@]1(c2ccccc2)C[C@@]1(NS(=O)(=O)c1ccc(-c2ccc(Cl)c(CO)c2)s1)C(=O)O [Example 2-564]
≥ 1000 | ≥ 1000 | ≥ 1000 |  |  |  | CC(C)CC(=O)N1CCN(S(=O)(=O)N[C@@]2(C(=O)O)C[C@@H]2c2ccccc2)CC1 [Example 2-513]
< 1000 | < 100 | ≥ 1000 |  |  |  | C[C@]1(c2ccccc2)C[C@@]1(NS(=O)(=O)c1ccc(-c2ccc(Cl)c(F)c2)s1)C(=O)O [Example 2-434]
≥ 1000 | < 1000 | ≥ 1000 |  |  |  | C[C@]1(c2ccccc2)C[C@@]1(NS(=O)(=O)c1ccc(-c2ccc(Cl)cc2Cl)s1)C(=O)O [Example 2-566]
< 1000 | ≥ 1000 | ≥ 1000 |  |  |  | Cn1cc(-c2ccc(S(=O)(=O)N[C@@]3(C(=O)O)C[C@]3(C)c3ccccc3)s2)nn1 [Example 2-587]
< 1000 | < 1000 | ≥ 1000 |  |  |  | COCCOCC1(c2ccccc2)CC1(NS(=O)(=O)c1ccc(-c2ccc(Cl)cc2)s1)C(=O)O (stereo not drawn) [Example 2-429]
< 100 | < 100 | < 1000 |  |  |  | O=C(O)C1(NS(=O)(=O)c2ccc(-c3cc(C(F)(F)F)on3)s2)C2CCC(O)c3ccccc3C21 (stereo not drawn) [Example 2-437]
≥ 1000 | ≥ 1000 | ≥ 10000 |  |  |  | Cc1nc2cc(N3CCN(S(=O)(=O)N[C@@]4(C(=O)O)C(C)[C@@H]4c4ccccc4)CC3)ccc2s1 (stereo partly drawn) [Example 2-483]
< 1000 | ≥ 1000 | ≥ 1000 |  |  |  | CC1[C@H](c2ccccc2)[C@]1(NS(=O)(=O)N1CCN(c2ccc(C(F)(F)F)cc2)C(=O)C1)C(=O)O (stereo partly drawn) [Example 2-504]
